By EC50 is commonly meant the concentration giving half of the maximal effect. Read a high EC50 as a need for much substance.

Drawing on patent US9650339B2, “Inhibitors of histone demethylases” (Gilead Sciences, Inc., priority 2013, dated 2017), this text covers EC50 for five compounds.

The structures appear in SMILES notation.

What all share (type): cell-based
One test deals with KARPAS620. Nature of the test: Cell proliferation assay KARPAS620. The settings on record: Homo sapiens, Karpas-620; KARPAS620, Plasma cell leukemia; method of Example 5. The protocol: (§1) MCF7 cells were seeded in multi well plates at a density optimized to give approximately 90% confluent cells at the time of harvest. Cells were incubated for 24 hours before addition of compound. Compounds were diluted in complete medium and added to the plates in duplicates. The final concentration of DMSO was maximum 0.5%. Complete medium used was DMEM with GlutaMAX containing 10% FBS and pen/strep.
(§2) 120 hours after addition of compounds, the plates were harvested and analyzed by ATPlite 1 Step (Perkin Elmer, cat no 6016739) according to the manufactures recommendation.
(§3) The assays were performed by the method of Example 5 by seeding the relevant cell line at a density optimized to give approximately 90% confluent cells at the time of harvest.

The next test concerns MM1R. Nature of the test: Cell proliferation assay MM1R. The note with it: Homo sapiens, MM.1R, Myeloma, method of Example 5. The protocol: as §1, §2, §3
The test system of another test is HEPG2. Nature of the test: Cell proliferation assay HEPG2. The settings on record: Homo sapiens; HEPG2, Hepatocellular carcinoma; method of Example 5. The protocol: as §1, §2, §3
The test system of a further test is RAJI. Nature of the test: Cell proliferation assay RAJI. The note with it: Homo sapiens, Burkitt's lymphoma, method of Example 5. Here is the method:
as §1, §2, §3

For the next test, the system named is MOLP8. As to the kind of experiment: Cell proliferation assay MOLP8. The note with it: Homo sapiens, MOLP-8; MOLP8, Myeloma; method of Example 5. Here is the method: as §1, §2, §3
A further test has as its system RPMI8226. Nature of the test: Cell proliferation assay RPMI8226. The settings on record: Homo sapiens, RPMI-8226; RPMI8226, Myeloma; method of Example 5. The protocol:
as §1, §2, §3

In the next test the test system is NALM6. Nature of the test: Cell proliferation assay NALM6. The note with it: Homo sapiens, NALM-6; NALM6, Lymphoblastic leukemia; method of Example 5. Here is the method: as §1, §2, §3
In another test the test system is BT474. Nature of the test: Cell proliferation assay BT474. The note with it: Homo sapiens, BT-474; BT474, Mammary ductal carcinoma; method of Example 5. Here is the method: as §1, §2, §3
The next test deals with MDA MB 231. Nature of the test: Cell proliferation assay MDA MB 231. The note with it: Homo sapiens; MDA MB 231, Breast carcinoma; method of Example 5. Here is the method: as §1, §2, §3
The test system of another test is ARPE19. As to the kind of experiment: Cell proliferation assay ARPE19. The note with it: Homo sapiens, ARPE-19; ARPE19, Retinal pigmented epithelium; method of Example 5. Here is the method:
as §1, §2, §3

Another test relates to MIA PACA2. Nature of the test: Cell proliferation assay MIA PACA2. The note with it: Homo sapiens, MIA PaCa-2; MIA PACA2, Pancreas epithelial carcinoma; method of Example 5. Here is the method: as §1, §2, §3
For a further test, the system named is L1236. As to the kind of experiment: Cell proliferation assay L1236. The note with it: Homo sapiens, L-1236; L1236, Hodgkin's lymphoma; method of Example 5. The protocol:
as §1, §2, §3

The test system of a further test is OPM2. As to the kind of experiment: Cell proliferation assay OPM2. The settings on record: Homo sapiens, OPM-2; OPM2, Myeloma; method of Example 5. The protocol: as §1, §2, §3
The next test deals with U2OS. Nature of the test: Cell proliferation assay U2OS. The settings on record: Homo sapiens, Osteosarcoma, method of Example 5. The protocol:
as §1, §2, §3

Another test has as its system AMO1. Nature of the test: Cell proliferation assay AMO1. The settings on record: Homo sapiens; AMO1, Plasmacytoma; method of Example 5. Here is the method:
as §1, §2, §3

In a further test the test system is MM1S. Nature of the test: Cell proliferation assay MM1S. The settings on record: Homo sapiens, MM1.S, Myeloma, method of Example 5. Here is the method:
as §1, §2, §3

In another test the test system is KMS 12 BM. Nature of the test: Cell proliferation assay KMS 12 BM. The settings on record: Homo sapiens, Myeloma, method of Example 5. Here is the method:
as §1, §2, §3

The test system of another test is L363. As to the kind of experiment: Cell proliferation assay L363. The settings on record: Homo sapiens, L-363; L363, Plasma cell leukemia; method of Example 5. Here is the method: as §1, §2, §3
In the next test the test system is Jurkat Clone E6-1. Nature of the test: Cell proliferation assay Jurkat Clone E6-1. The note with it: Homo sapiens; Jurkat Clone E6-1, Acute T cell lymphoma; method of Example 5. The protocol: as §1, §2, §3
The next test concerns OVCAR-3. Nature of the test: Cell proliferation assay OVCAR-3. The settings on record: Homo sapiens; OVCAR-3, Ovary; method of Example 5. Here is the method:
as §1, §2, §3

The next test concerns EJM. Nature of the test: Cell proliferation assay EJM. The settings on record: Homo sapiens, Myeloma, method of Example 5. Here is the method:
as §1, §2, §3

A further test concerns A375. Nature of the test: Cell proliferation assay A375. The note with it: Homo sapiens, A-375; A375, Melanoma; method of Example 5. The protocol: as §1, §2, §3
The next test concerns K562. As to the kind of experiment: Cell proliferation assay K562. The settings on record: Homo sapiens; K562, Chronic myelogenous leukemia; method of Example 5. Here is the method:
as §1, §2, §3

The next test concerns HCC1954. As to the kind of experiment: Cell proliferation assay HCC1954. The note with it: Homo sapiens; HCC1954, Breast dutal carcinoma; method of Example 5. The protocol:
as §1, §2, §3

The test system of another test is MOLP2. Nature of the test: Cell proliferation assay MOLP2. The note with it: Homo sapiens, MOLP-2; MOLP2, Myeloma; method of Example 5. Here is the method:
as §1, §2, §3

In a further test the test system is NCIH929. Nature of the test: Cell proliferation assay NCIH929. The settings on record: Homo sapiens, NCI-H929; NCIH929, Myeloma; method of Example 5. The protocol:
as §1, §2, §3

The next test has as its system SK-MEL-28. As to the kind of experiment: Cell proliferation assay SK-MEL-28. The settings on record: Homo sapiens; SK-MEL-28, Melanoma; method of Example 5. Here is the method: as §1, §2, §3
For another test, the system named is SU DHL6. Nature of the test: Cell proliferation assay SU DHL6. The settings on record: Homo sapiens, SU-DHL-6; SU DHL6, B cell lymphoma; method of Example 5. Here is the method:
as §1, §2, §3

The next test concerns UH01. Nature of the test: Cell proliferation assay UH01. The note with it: Homo sapiens; UH01, Hodgkin's lymphoma; method of Example 5. Here is the method:
as §1, §2, §3

The test system of a further test is U266. Nature of the test: Cell proliferation assay U266. The note with it: Homo sapiens, U-266; U266, Myeloma; method of Example 5. Here is the method:
as §1, §2, §3

The test system of the next test is SK MM2. As to the kind of experiment: Cell proliferation assay SK MM2. The settings on record: Homo sapiens, SK-MM-2; SK MM2, Plasma cell leukemia; method of Example 5. Here is the method: as §1, §2, §3
In another test the test system is JJN3. Nature of the test: Cell proliferation assay JJN3. The settings on record: Homo sapiens, JJN-3; JJN3, Plasma cell leukemia; method of Example 5. The protocol: as §1, §2, §3
The test system of another test is LP1. Nature of the test: Cell proliferation assay LP1. The note with it: Homo sapiens, LP-1; LP1, Myeloma; method of Example 5. The protocol:
as §1, §2, §3

In the case of `CCN(CCN(C)C)C(=O)CNCc1cc(C2OCC(Cc3ccccc3)CN2C(=O)C(F)(F)F)ccn1` (centres unmarked) [Compound 90, 2-[({4-[5-benzyl-3-(trifluoroacetyl)-1,3-oxazinan-2-yl]pyridin-2-yl}methyl)amino]-N-[2-(dimethylamino)-ethyl]-N-ethylacetamide], the concentration for a half-maximal effect (EC50) is under 250 nM in the test with KARPAS620; under 250 nM with MM1R; over 2500 nM with HEPG2; over 2500 nM in the test with RAJI; under 250 nM in the test with MOLP8; 250 to 2500 nM in the test on RPMI8226.

On to `C(=N/C1CC1)/c1ccnc(CNCCCN2CCCC2)c1` [Compound 42, N-{[2-({[3-(pyrrolidin-1-yl)propyl]amino}-methyl)pyridin-4-yl]methylidene}-cyclopropanamine], for which the EC50 in the test with NALM6 is under 250 nM; with KARPAS620, over 2500 nM; in the test with BT474, 250 to 2500 nM; in the test with MDA MB 231 it was over 2500 nM; in the test with HEPG2, over 2500 nM; with RAJI, over 2500 nM. The half-maximal effective concentration (EC50) in the test on ARPE19, with MIA PACA2, in the test with RPMI8226, with L1236, with OPM2 and in the test on U2OS was over 2500 nM each time.

For `CCN(CCN(C)C)C(=O)CNCc1cc(CNC(=O)C(F)(F)F)ccn1` [Compound 25, N-[(2-{[({[2-(dimethylamino)ethyl]-(ethyl)carbamoyl}-methyl)amino]methyl}-pyrtdin-4-yl)methyl]-2,2,2-trifluoroacetamide], the EC50 was under 250 nM in the test with AMO1; under 250 nM in the test on MM1S; under 250 nM in the test on KMS 12 BM; over 2500 nM in the test with L363; over 2500 nM with Jurkat Clone E6-1; over 2500 nM in the test on OVCAR-3. The half-maximal effective concentration (EC50) in the test on MDA MB 231 was over 2500 nM; in the test on EJM, over 2500 nM; with A375 it was 250 to 2500 nM; with K562, 250 to 2500 nM; in the test on HCC1954, over 2500 nM; with HEPG2 it was over 2500 nM. Moreover, the EC50 was 250 to 2500 nM in the test with MOLP2; 250 to 2500 nM with NCIH929; over 2500 nM in the test on SK-MEL-28; over 2500 nM in the test on RAJI; over 2500 nM with ARPE19; under 250 nM in the test with SU DHL6. In addition, the EC50 in the test with L1236 is over 2500 nM; in the test on OPM2, 250 to 2500 nM.

For `CCN(CC)CCCCNCc1cc(C=O)ccn1` [Compound 107, 2-({[4-(diethylamino)-butyl]amino}-methyl)pyridine-4-carbaldehyde], the EC50 in the test with NALM6 is under 250 nM; with BT474 it was under 250 nM; in the test with MDA MB 231, over 2500 nM; in the test with MOLP2, over 2500 nM; in the test on ARPE19, over 2500 nM; with MIA PACA2, over 2500 nM. For the same compound, the EC50 is over 2500 nM with RPMI8226, 250 to 2500 nM in the test with OPM2 and over 2500 nM with U2OS.

For `CCN(CC)CCCCNCc1cc(/C=N/CCO)ccn1` [Compound 61, 2-[{[2-({[4-(diethylamino)-butyl]amino}-methyl)pyridin-4-yl]methylidene}-amino]ethan-1-ol], the concentration giving a half-maximal response (EC50) in the test on KARPAS620 is under 250 nM; in the test on UH01, over 2500 nM; with BT474, under 250 nM; in the test on L363 it was over 2500 nM; in the test with U266, over 2500 nM; in the test with SK MM2 it was 250 to 2500 nM. For the same compound, the EC50 in the test with EJM, with HEPG2, in the test with JJN3, in the test with NCIH929, in the test on RAJI and in the test on ARPE19 was over 2500 nM in each case. Besides, the EC50 in the test on MIA PACA2, in the test with RPMI8226 and in the test with LP1 was over 2500 nM throughout.
